Reference: US20040087633A1, “Methylidene oxazolidinone compound and preparation method thereof” (Korea Institute of Science and Technology, priority 2002, published 2004)
Values after ≈ are worked out from the molar mass of the structure shown.

Key:
Test in all cases: Anti-microbial activity test in vitro (agar dilution MIC)
CRSA C1062 = format: cell-based, Staphylococcus aureus; conditions: CRSA C1062; Agar Dilution method, Mueller Hinton Agar, 18 hours at 37° C.
Protocol: (§1) Anti-microbial activity test in vitro
(§2) Strains were cultivated for 18 hours at 37° C. in Agar Dilution method using Mueller Hinton Agar, and then plane plates inoculated with the strains by diluting them two times gradually were aligned in a row. Minimum inhibition concentration (MIC, μg/ml) for the representative compounds of the present invention, Linezolid (LZD) and vancomycin (VAN) were decided through visual observation, and the results are shown in the following tables 2 and 3.

MRSA C2207 = format: cell-based, Staphylococcus aureus; conditions: MRSA C2207; Agar Dilution method, Mueller Hinton Agar, 18 hours at 37° C.
Protocol: as §1, §2

MSSA C7142 = format: cell-based, Staphylococcus aureus; conditions: MSSA C7142; Agar Dilution method, Mueller Hinton Agar, 18 hours at 37° C.
Protocol: as §1, §2

MRSA C5100 = format: cell-based, Staphylococcus aureus; conditions: MRSA C5100; Agar Dilution method, Mueller Hinton Agar, 18 hours at 37° C.
Protocol: as §1, §2

MSSA C2214 = format: cell-based, Staphylococcus aureus; conditions: MSSA C2214; Agar Dilution method, Mueller Hinton Agar, 18 hours at 37° C.
Protocol: as §1, §2

CRSA C6043 = format: cell-based, Staphylococcus aureus; conditions: CRSA C6043; Agar Dilution method, Mueller Hinton Agar, 18 hours at 37° C.
Protocol: as §1, §2

MRSA C6068 = format: cell-based, Staphylococcus aureus; conditions: MRSA C6068; Agar Dilution method, Mueller Hinton Agar, 18 hours at 37° C.
Protocol: as §1, §2

VRE C6488 = format: cell-based, Enterococcus faecium; conditions: VRE C6488; Agar Dilution method, Mueller Hinton Agar, 18 hours at 37° C.
Protocol: as §1, §2

VRE C6487 = format: cell-based, Enterococcus faecium; conditions: VRE C6487; Agar Dilution method, Mueller Hinton Agar, 18 hours at 37° C.
Protocol: as §1, §2

E. faecalis ATCC29212 = format: cell-based; conditions: E. faecalis ATCC29212; Agar Dilution method, Mueller Hinton Agar, 18 hours at 37° C.
Protocol: as §1, §2

S. epidermidis C2230 = format: cell-based; conditions: S. epidermidis C2230; Agar Dilution method, Mueller Hinton Agar, 18 hours at 37° C.
Protocol: as §1, §2

S. epidermidis C2235 = format: cell-based; conditions: S. epidermidis C2235; Agar Dilution method, Mueller Hinton Agar, 18 hours at 37° C.
Protocol: as §1, §2

E. faecium C6301 = format: cell-based; conditions: E. faecium C6301; Agar Dilution method, Mueller Hinton Agar, 18 hours at 37° C.
Protocol: as §1, §2

S. epidermidis ATCC12228 = format: cell-based; conditions: S. epidermidis ATCC12228; Agar Dilution method, Mueller Hinton Agar, 18 hours at 37° C.
Protocol: as §1, §2

S. pyogenes C6012 = format: cell-based; conditions: S. pyogenes C6012; Agar Dilution method, Mueller Hinton Agar, 18 hours at 37° C.
Protocol: as §1, §2

S. pyogenes ATCC8668 = format: cell-based; conditions: S. pyogenes ATCC8668; Agar Dilution method, Mueller Hinton Agar, 18 hours at 37° C.
Protocol: as §1, §2

E. faecium C2252 = format: cell-based; conditions: E. faecium C2252; Agar Dilution method, Mueller Hinton Agar, 18 hours at 37° C.
Protocol: as §1, §2

S. aureus ATCC 29213 = format: cell-based; conditions: Agar Dilution method, Mueller Hinton Agar, 18 hours at 37° C.
Protocol: as §1, §2

S. pyogenes C6003 = format: cell-based; conditions: S. pyogenes C6003; Agar Dilution method, Mueller Hinton Agar, 18 hours at 37° C.
Protocol: as §1, §2

E. faecalis C6288 = format: cell-based; conditions: E. faecalis C6288; Agar Dilution method, Mueller Hinton Agar, 18 hours at 37° C.
Protocol: as §1, §2

E. faecalis C6291 = format: cell-based; conditions: E. faecalis C6291; Agar Dilution method, Mueller Hinton Agar, 18 hours at 37° C.
Protocol: as §1, §2

CC(=O)C=C1CCN(c2ccc(N3C[C@H](CNC(C)=O)OC3=O)cc2F)CC1 [Compound 12, N-[[(5S)-3-[3-fluoro-4-(4-methylcarbonylmethylidene-piperidinyl)phenyl]-2-oxo-5-oxazolidinyl]methyl]acetamide]
Minimum inhibition concentration (MIC) (CRSA C1062): 8 µg/mL (≈ 20.5 µM) | Minimum inhibition concentration (MIC) (MRSA C2207): 8 µg/mL (≈ 20.5 µM) | Minimum inhibition concentration (MIC) (MSSA C7142): 16 µg/mL (≈ 41.1 µM) | Minimum inhibition concentration (MIC) (MRSA C5100): 8 µg/mL (≈ 20.5 µM) | Minimum inhibition concentration (MIC) (MSSA C2214): 16 µg/mL (≈ 41.1 µM) | Minimum inhibition concentration (MIC) (CRSA C6043): 16 µg/mL (≈ 41.1 µM) | Minimum inhibition concentration (MIC) (MRSA C6068): 16 µg/mL (≈ 41.1 µM) | Minimum inhibition concentration (MIC) (VRE C6488): 8 µg/mL (≈ 20.5 µM) | Minimum inhibition concentration (MIC) (VRE C6487): 2 µg/mL (≈ 5.14 µM) | Minimum inhibition concentration (MIC) (E. faecalis ATCC29212): 16 µg/mL (≈ 41.1 µM) | Minimum inhibition concentration (MIC) (S. epidermidis C2230): 8 µg/mL (≈ 20.5 µM) | Minimum inhibition concentration (MIC) (S. epidermidis C2235): 8 µg/mL (≈ 20.5 µM) | Minimum inhibition concentration (MIC) (E. faecium C6301): 8 µg/mL (≈ 20.5 µM) | Minimum inhibition concentration (MIC) (S. epidermidis ATCC12228): 1 µg/mL (≈ 2.57 µM) | Minimum inhibition concentration (MIC) (S. pyogenes C6012): 16 µg/mL (≈ 41.1 µM) | Minimum inhibition concentration (MIC) (S. pyogenes ATCC8668): 8 µg/mL (≈ 20.5 µM) | Minimum inhibition concentration (MIC) (E. faecium C2252): 8 µg/mL (≈ 20.5 µM) | Minimum inhibition concentration (MIC) (S. aureus ATCC 29213): 8 µg/mL (≈ 20.5 µM) | Minimum inhibition concentration (MIC) (S. pyogenes C6003): 0.2 µg/mL (≈ 0.514 µM) | Minimum inhibition concentration (MIC) (E. faecalis C6288): 16 µg/mL (≈ 41.1 µM) | Minimum inhibition concentration (MIC) (E. faecalis C6291): 16 µg/mL (≈ 41.1 µM)

CCOC(=O)C(C)=C1CCN(c2ccc(N3C[C@H](CNC(C)=O)OC3=O)cc2F)CC1 [Compound 13, N-[[(5S)-3-[3-fluoro-4-(4-(1-ethoxycarbonylethylidene)-piperidinyl)phenyl]-2-oxo-5-oxazolidinyl]methyl]acetamide]
Minimum inhibition concentration (MIC) (CRSA C1062): 16 µg/mL (≈ 36.9 µM) | Minimum inhibition concentration (MIC) (MRSA C2207): 16 µg/mL (≈ 36.9 µM) | Minimum inhibition concentration (MIC) (MSSA C7142): 8 µg/mL (≈ 18.5 µM) | Minimum inhibition concentration (MIC) (MRSA C5100): 8 µg/mL (≈ 18.5 µM) | Minimum inhibition concentration (MIC) (MSSA C2214): 16 µg/mL (≈ 36.9 µM) | Minimum inhibition concentration (MIC) (CRSA C6043): 8 µg/mL (≈ 18.5 µM) | Minimum inhibition concentration (MIC) (MRSA C6068): 8 µg/mL (≈ 18.5 µM) | Minimum inhibition concentration (MIC) (VRE C6488): 8 µg/mL (≈ 18.5 µM) | Minimum inhibition concentration (MIC) (VRE C6487): 1 µg/mL (≈ 2.31 µM) | Minimum inhibition concentration (MIC) (E. faecalis ATCC29212): 16 µg/mL (≈ 36.9 µM) | Minimum inhibition concentration (MIC) (S. epidermidis C2230): 16 µg/mL (≈ 36.9 µM) | Minimum inhibition concentration (MIC) (S. epidermidis C2235): 8 µg/mL (≈ 18.5 µM) | Minimum inhibition concentration (MIC) (E. faecium C6301): 8 µg/mL (≈ 18.5 µM) | Minimum inhibition concentration (MIC) (S. epidermidis ATCC12228): 4 µg/mL (≈ 9.23 µM) | Minimum inhibition concentration (MIC) (S. pyogenes C6012): 16 µg/mL (≈ 36.9 µM) | Minimum inhibition concentration (MIC) (S. pyogenes ATCC8668): 8 µg/mL (≈ 18.5 µM) | Minimum inhibition concentration (MIC) (E. faecium C2252): 8 µg/mL (≈ 18.5 µM) | Minimum inhibition concentration (MIC) (S. aureus ATCC 29213): 16 µg/mL (≈ 36.9 µM) | Minimum inhibition concentration (MIC) (S. pyogenes C6003): 4 µg/mL (≈ 9.23 µM) | Minimum inhibition concentration (MIC) (E. faecalis C6288): 16 µg/mL (≈ 36.9 µM) | Minimum inhibition concentration (MIC) (E. faecalis C6291): 8 µg/mL (≈ 18.5 µM)
